Results published in patent publication US10954252B1, “Inhibitors of human immunodeficiency virus replication” (ViiV HEALTHCARE UK (NO.5) LIMITED, priority 2017, dated 2021).

Legend:
[1] = system: recombinant NL4-3 virus (nef section replaced with Renilla luciferase gene) in MT-2 cells; test: HIV cell culture assay (antiviral activity, luciferase readout); assay type: cell-based; details: MT-2 cells infected for 4-5 days with recombinant NL4-3 luciferase virus
Outline: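 NL4-3 reporter virus carrying Renilla luciferase in place of part of nef, produced in 293T cells, was used to infect MT-2 cells for 4-5 days with serial compound dilutions. Luciferase activity was read with a live-cell substrate; EC50 derived from the median effect equation.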

[2] = Compound cytotoxicity, XTT-based colorimetric assay; assay type: cell-based; details: human, uninfected MT2 cells, Table 1a, day 4, XTT
Outline: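 CC50 from uninfected MT2 cells run under the antiviral-assay protocol without virus. Viability read on day 4 by XTT colorimetric assay.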

CS(=O)(=O)Nc1nn(CC(F)F)c2c(-c3cc4[nH]ncc4nc3[C@H](Cc3cc(F)cc(F)c3)NC(=O)Cn3nc(C(F)F)c4c3C(F)(F)[C@@H]3C[C@H]43)ccc(Cl)c12 (single isomer, unassigned) [Example 92]
EC50 ([1]; Renilla, NL43, Table 1a): 0.161 nM | CC50 at 4 days [2]: > 10000 nM

CS(=O)(=O)Nc1nn(CC(F)(F)F)c2c(-c3cc4[nH]ncc4nc3[C@H](Cc3cc(F)cc(F)c3)NC(=O)Cn3nc(C(F)F)c4c3C(F)(F)[C@@H]3C[C@H]43)ccc(Cl)c12 (single isomer, unassigned) [Example 94]
EC50 ([1]; Renilla, NL43, Table 1a): 0.146 nM | CC50 at 4 days [2]: > 1000 nM

Cc1cccc2c(=O)n(-c3ccc(Cl)c4c(NS(C)(=O)=O)nn(C)c34)c([C@H](Cc3cc(F)cc(F)c3)NC(=O)Cn3nc(C(F)F)c4c3C(F)(F)[C@@H]3C[C@H]43)nc12 (single isomer, unassigned) [Example 97]
EC50 ([1]; Table 1a): 30.6 nM | CC50 at 4 days [2]: > 1000 nM

Cn1nc(NS(C)(=O)=O)c2c(Cl)ccc(-n3c([C@H](Cc4cc(F)cc(F)c4)NC(=O)Cn4nc(C(F)F)c5c4CCC5)nc4c(F)cc(F)cc4c3=O)c21 (single isomer, unassigned) [Example 99]
EC50 ([1]; Table 1a): 17.8 nM | CC50 at 4 days [2]: > 1000 nM

Cn1nc(NS(C)(=O)=O)c2c(Cl)ccc(-n3c([C@H](Cc4cc(F)cc(F)c4)NC(=O)Cn4nc(C(F)F)c5c4C(F)(F)[C@@H]4C[C@H]54)nc4c(Cl)cccc4c3=O)c21 (single isomer, unassigned) [Example 101]
EC50 ([1]; Table 1a): 335 nM | CC50 at 4 days [2]: > 1000 nM

Cn1nc(NS(C)(=O)=O)c2c(Cl)ccc(-n3c([C@H](Cc4cc(F)cc(F)c4)NC(=O)Cn4nc(C(F)F)c5c4C(F)(F)[C@@H]4C[C@H]54)nc4c(C(N)=O)cccc4c3=O)c21 (single isomer, unassigned) [Example 106]
EC50 ([1]; Renilla, NL43, Table 1a): 23.8 nM | CC50 at 4 days [2]: > 1000 nM

Cc1c(F)ccc2c(=O)n(-c3ccc(Cl)c4c(NS(C)(=O)=O)nn(C)c34)c([C@H](Cc3cc(F)cc(F)c3)NC(=O)Cn3nc(C(F)F)c4c3C(F)(F)[C@@H]3C[C@H]43)nc12 (single isomer, unassigned) [Example 107]
EC50 ([1]; Table 1a): 27.3 nM | CC50 at 4 days [2]: > 1000 nM

COc1c(F)ccc2c(=O)n(-c3ccc(Cl)c4c(NS(C)(=O)=O)nn(C)c34)c([C@H](Cc3cc(F)cc(F)c3)NC(=O)Cn3nc(C(F)F)c4c3C(F)(F)[C@@H]3C[C@H]43)nc12 (single isomer, unassigned) [Example 109]
EC50 ([1]; Table 1a): 118 nM | CC50 at 4 days [2]: > 1000 nM

COc1c(F)ccc2c(=O)n(-c3ccc(Cl)c4c(NS(C)(=O)=O)nn(C)c34)c([C@H](Cc3cc(F)cc(F)c3)NC(=O)Cn3ccc(C4CC4)n3)nc12 (single isomer, unassigned) [Example 111]
EC50 ([1]; Table 1a): 92.6 nM | CC50 at 4 days [2]: > 1000 nM

COc1c(F)cc2c(=O)n(-c3ccc(Cl)c4c(NS(C)(=O)=O)nn(C)c34)c([C@H](Cc3cc(F)cc(F)c3)NC(=O)Cn3ccc(C4CC4)n3)nc2c1F (single isomer, unassigned) [Example 115]
EC50 ([1]; Table 1a): 68.4 nM | CC50 at 4 days [2]: > 1000 nM

Cn1ccc2nc(C(Cc3cc(F)cc(F)c3)NC(=O)Cn3nc(C(F)F)c4c3C(F)(F)[C@@H]3C[C@H]43)c(-c3ccc(Cl)c4c(NS(C)(=O)=O)nn(C)c34)cc21 (single isomer, unassigned) [Example 117]
EC50 ([1]; Renilla, NL43, Table 1a): 0.243 nM | CC50 at 4 days [2]: > 10000 nM

Cn1ccc2nc([C@H](Cc3cc(F)cc(F)c3)NC(=O)Cn3nc(C(F)F)c4c3C(F)(F)[C@@H]3C[C@H]43)c(-c3ccc(Cl)c4c(NS(C)(=O)=O)nn(C)c34)cc21 (single isomer, unassigned) [Example 119]
EC50 ([1]; Renilla, NL43, Table 1a): 0.0924 nM | CC50 at 4 days [2]: > 10000 nM

Cn1ccc2nc([C@@H](Cc3cc(F)cc(F)c3)NC(=O)Cn3nc(C(F)F)c4c3C(F)(F)[C@@H]3C[C@H]43)c(-c3ccc(Cl)c4c(NS(C)(=O)=O)nn(C)c34)cc21 (single isomer, unassigned) [Example 121]
EC50 ([1]; Renilla, NL43, Table 1a): 171 nM | CC50 at 4 days [2]: > 10000 nM

Cc1cccc2nc([C@H](Cc3cc(F)cc(F)c3)NC(=O)Cn3nc(C(F)F)c4c3C(F)(F)[C@@H]3C[C@H]43)n(-c3ccc(Cl)c4c(NS(C)(=O)=O)nn(C)c34)c(=O)c12 (single isomer, unassigned) [Example 125]
EC50 ([1]; Table 1a): 63.9 nM | CC50 at 4 days [2]: > 1000 nM

Cn1nc(NS(C)(=O)=O)c2c(Cl)ccc(-n3c([C@H](Cc4cc(F)cc(F)c4)NC(=O)Cn4nc(C(F)F)c5c4C(F)(F)[C@@H]4C[C@H]54)nc4cccc(C(F)(F)F)c4c3=O)c21 (single isomer, unassigned) [Example 127]
EC50 ([1]; Table 1a): 379 nM | CC50 at 4 days [2]: > 1000 nM

Cn1nc(NS(C)(=O)=O)c2c(Cl)ccc(-n3c([C@H](Cc4cc(F)cc(F)c4)NC(=O)Cn4nc(C(F)F)c5c4C(F)(F)[C@@H]4C[C@H]54)nc4cc(F)cc(F)c4c3=O)c21 (single isomer, unassigned) [Example 130]
EC50 ([1]; Renilla, NL43, Table 1a): 0.15 nM | CC50 at 4 days [2]: > 1000 nM

Cn1nc(NS(C)(=O)=O)c2c(Cl)ccc(-n3c([C@H](Cc4cc(F)cc(F)c4)NC(=O)Cn4ccc(C5CC5)n4)nc4cc(F)cc(F)c4c3=O)c21 (single isomer, unassigned) [Example 131]
EC50 ([1]; Renilla, NL43, Table 1a): 111 nM | CC50 at 4 days [2]: > 1000 nM

Cc1cccc2nc([C@H](Cc3cc(F)cc(F)c3)NC(=O)Cn3ccc(C4CC4)n3)n(-c3ccc(Cl)c4c(NS(C)(=O)=O)nn(C)c34)c(=O)c12 (single isomer, unassigned) [Example 133]
EC50 ([1]; Table 1a): 127 nM | CC50 at 4 days [2]: > 1000 nM

Cn1nc(NS(C)(=O)=O)c2c(Cl)ccc(-n3c([C@H](Cc4cc(F)cc(F)c4)NC(=O)Cn4ccc(C5CC5)n4)nc4cccc(C(F)(F)F)c4c3=O)c21 (single isomer, unassigned) [Example 136]
EC50 ([1]; Renilla, NL43, Table 1a): 38.9 nM | CC50 at 4 days [2]: > 1000 nM

Cn1nc(NS(C)(=O)=O)c2c(Cl)ccc(-n3c([C@H](Cc4cc(F)cc(F)c4)NC(=O)Cn4nc(C(F)F)c5c4C(F)(F)[C@@H]4C[C@H]54)nc4cc(C(F)(F)F)ccc4c3=O)c21 (single isomer, unassigned) [Example 137]
EC50 ([1]; Table 1a): 9.89 nM | CC50 at 4 days [2]: > 1000 nM

Cn1nc(NS(C)(=O)=O)c2c(Cl)ccc(-n3c([C@H](Cc4cc(F)cc(F)c4)NC(=O)Cn4nc(C(F)F)c5c4C(F)(F)[C@@H]4C[C@H]54)nc4ccc(OC(F)(F)F)cc4c3=O)c21 (single isomer, unassigned) [Example 140]
EC50 ([1]; Renilla, NL43, Table 1a): 0.32 nM | CC50 at 4 days [2]: > 1000 nM

Cn1nc(NS(C)(=O)=O)c2c(Cl)ccc(-n3c([C@H](Cc4cc(F)cc(F)c4)NC(=O)Cn4ccc(C(F)(F)F)n4)nc4cc(C(F)(F)F)ccc4c3=O)c21 (single isomer, unassigned) [Example 141]
EC50 ([1]; Table 1a): 217 nM | CC50 at 4 days [2]: > 1000 nM

Cn1nc(NS(C)(=O)=O)c2c(Cl)ccc(-n3c([C@H](Cc4cc(F)cc(F)c4)NC(=O)Cn4ccc(C(F)(F)F)n4)nc4ccc(OC(F)(F)F)cc4c3=O)c21 (single isomer, unassigned) [Example 143]
EC50 ([1]; Table 1a): 84 nM | CC50 at 4 days [2]: > 1000 nM

Cn1nc(NS(C)(=O)=O)c2c(Cl)ccc(-n3c([C@H](Cc4cc(F)cc(F)c4)NC(=O)Cn4ccc(C5CC5)n4)nc4c(F)ccc(F)c4c3=O)c21 (single isomer, unassigned) [Example 145]
EC50 ([1]; Table 1a): 30.2 nM | CC50 at 4 days [2]: > 1000 nM

Cn1nc(NS(C)(=O)=O)c2c(Cl)ccc(-n3c([C@H](Cc4cc(F)cc(F)c4)NC(=O)Cn4nc(C(F)F)c5c4C(F)(F)[C@@H]4C[C@H]54)nc4c(F)ccc(F)c4c3=O)c21 (single isomer, unassigned) [Example 147]
EC50 ([1]; Table 1a): 27.9 nM | CC50 at 4 days [2]: > 1000 nM

Cn1nc(NS(C)(=O)=O)c2c(Cl)ccc(-n3c([C@H](Cc4cc(F)cc(F)c4)NC(=O)Cn4ccc(C5CC5)n4)nc4ccc(OC(F)(F)F)cc4c3=O)c21 (single isomer, unassigned) [Example 152]
EC50 ([1]; Table 1a): 173 nM | CC50 at 4 days [2]: > 1000 nM

Cn1nc(NS(C)(=O)=O)c2c(Cl)ccc(-n3c([C@H](Cc4cc(F)cc(F)c4)NC(=O)Cn4nc(C(F)F)c5c4C(F)(F)[C@@H]4C[C@H]54)nc4ccc(F)c(Cl)c4c3=O)c21 (single isomer, unassigned) [Example 160]
EC50 ([1]; Table 1a): 0.18 nM | CC50 at 4 days [2]: > 1000 nM

COc1ccc2nc([C@H](Cc3cc(F)cc(F)c3)NC(=O)Cn3nc(C(F)F)c4c3C(F)(F)[C@@H]3C[C@H]43)n(-c3ccc(Cl)c4c(NS(C)(=O)=O)nn(C)c34)c(=O)c2c1 (single isomer, unassigned) [Example 173]
EC50 ([1]; Table 1a): 32 nM | CC50 at 4 days [2]: > 1000 nM

Cn1nc(NS(C)(=O)=O)c2c(Cl)ccc(-n3c([C@H](Cc4cc(F)cc(F)c4)NC(=O)Cn4nc(C(F)F)c5c4C(F)(F)[C@@H]4C[C@H]54)nc4ccc(Cl)c(F)c4c3=O)c21 (single isomer, unassigned) [Example 176]
EC50 ([1]; Table 1a): 0.19 nM | CC50 at 4 days [2]: > 1000 nM

Cn1nc(NS(C)(=O)=O)c2c(Cl)ccc(-n3c([C@H](Cc4cc(F)cc(F)c4)NC(=O)Cn4nc(C(F)F)c5c4C(F)(F)[C@@H]4C[C@H]54)nc4cc(Cl)cc(Cl)c4c3=O)c21 (single isomer, unassigned) [Example 179]
EC50 ([1]; Table 1a): 0.077 nM | CC50 at 4 days [2]: > 1000 nM

COc1cc(OC)c2c(=O)n(-c3ccc(Cl)c4c(NS(C)(=O)=O)nn(C)c34)c([C@H](Cc3cc(F)cc(F)c3)NC(=O)Cn3nc(C(F)F)c4c3C(F)(F)[C@@H]3C[C@H]43)nc2c1 (single isomer, unassigned) [Example 181]
EC50 ([1]; Table 1a): 23.1 nM | CC50 at 4 days [2]: > 1000 nM

Cn1nc(NS(C)(=O)=O)c2c(Cl)ccc(-n3c([C@H](Cc4cc(F)cc(F)c4)NC(=O)Cn4ccc(C5CC5)n4)nc4cccc(F)c4c3=O)c21 (single isomer, unassigned) [Example 183]
EC50 ([1]; Table 1a): 21.5 nM | CC50 at 4 days [2]: > 1000 nM
